Where two headings read alike, the source gives them in different places. Where a SMILES comes first, the peptide text is derived from it. Bridges are numbered along the chain shown (N, C = ends). [ ]: non-standard residue; d: D form. 2Abz = Nc1ccccc1C(=O)O; Dap = NC[C@H](N)C(=O)O
Columns and labels:
rat MOR = biological target: T1, rat MOR (Rattus norvegicus, UniProt P33535); experiment: Opioid receptor radioligand binding assay ([3H]diprenorphine), MOR; details: CHO cell membranes, read-out: binding affinity (Ki) at MOR
T1 construct: expressed in transfected cells
Method: (§1) CycloAnt is a lariat peptide that acts in vivo as a bifunctional MOR agonist and DOR antagonist, which was confirmed in our previous study using opioid receptor individually knock-out (OP KO) mice. In the current study, the binding affinities of CycloAnt to the three opioid receptors are determined using cell-based radioligand opioid receptor binding assays. […] At the KOR, CycloAnt at 1 μM inhibits 6% and at 10 μM inhibits 26% of [^3H]diprenorphine binding.
(§2) Opioid receptor radioligand binding assay. Membranes of CHO cells stably expressing the rat MOR, mouse DOR, or human KOR were used in the experiments. [^3H]diprenorphine (PerkinElmer, Waltham, MA, at the time of experiment calculated to have specific activity 35 Ci/mmol) was used as the radioligand for the MOR, DOR, and KOR. Competition inhibition of [^3H]diprenorphine (0.3–0.4 nM) binding to the MOR or DOR was conducted in 50 mM Tris-HCl buffer (pH 7.4) with an adequate number of cell membranes for each receptor and […] of CycloAnt. […] Binding reactions were terminated by rapid filtration under vacuum over GF/B filters presoaked in 0.1% polyethyleneimine, and the bound radioactivity was counted by liquid scintillation counting. […] Binding data were analyzed using GraphPad Prism software (version 10.2.3) and IC50 values (the concentration necessary to inhibit 50 percent of radioligand binding) and Ki values were calculated. […]

mouse DOR = biological target: T2, mouse DOR (Mus musculus, UniProt P32300); experiment: Opioid receptor radioligand binding assay ([3H]diprenorphine), DOR; details: CHO cell membranes, read-out: binding affinity (Ki) at DOR
T2 construct: expressed in transfected cells
Method: as §1, §2

[1] = Pharmacokinetic study in mice (plasma and brain); assay type: in vivo; details: male, C57BL/6, mouse, ip, 3 mg/kg i.p.
Method: To evaluate the amount of CycloAnt in mouse brain, we performed a pharmacokinetic experiment in mice. Mice were given CycloAnt at 3 mg/kg i.p.; blood was collected at 0, 15, 30, and 60 min post-injection. Immediately after the blood was collected, the mouse was intracardially perfused through the left ventricle with 20 mL PBS. The whole brain was isolated and homogenized. The blood and brain samples were processed by protein precipitation and centrifugation. The supernatants of the blood and brain samples were collected and analyzed by LC-MS/MS.
Pharmacokinetic study. Standard curve. Following euthanasia, mouse blood was collected in a heparin anticoagulation tube and the whole brain was isolated. For determination of the standard curve in mouse blood, 300 μL of blood was spiked with 0, 10, 100, and 1000 ng of CycloAnt, respectively, followed by adding 600 μL of ice-cold acetonitrile containing the internal standard (IS, Tyr-[D-Lys-Phe-Tyr-Gly]) at 200 ng/mL. The blood samples were thoroughly mixed and centrifuged at 10,000 rpm at 4 °C for 10 min. An aliquot of 600 μL of supernatant from each sample was collected and dried under vacuum, followed by reconstitution of the dried blood sample in 100 μL 20% acetonitrile. The reconstituted sample was centrifuged at 13,000 rpm, 4 °C for 5 min to remove the lipid content. The supernatant was collected for LC-MS/MS analysis. For mouse brain, the brain was homogenized with 250 μL of PBS at 0 °C, followed by adding 1 mL of ice-cold acetonitrile containing the IS. The brain sample was then spiked with 0, 10, 100, and 1000 ng of CycloAnt, respectively, and thoroughly mixed and centrifuged at 10,000 rpm, 4 °C for 10 min. An aliquot of 1000 μL of supernatant was collected and dried under vacuum, followed by adding 100 μL 20% acetonitrile to reconstitute the dried brain sample. The reconstituted sample was mixed and centrifugating at 13,000 rpm, 4 °C for 5 min to remove the lipid content. The supernatant was collected and analyzed by LC-MS/MS.
The peak areas of CycloAnt and IS were recorded; the relative measured concentration of CycloAnt was calculated using the ratio of CycloAnt peak area vs. IS peak area. A standard concentration curve (Figure S8) was then generated for CycloAnt in the matrix of blood and brain, respectively.
Pharmacokinetics. Eight-week-old male C57BL/6 mice (Jackson Laboratories, Bar Harbor, ME, USA) were used for pharmacokinetic studies. CycloAnt was given to mice (n = 2) i.p. at a dose of 3 mg/kg. At 15, 30, and 60 min post-administration, mouse blood was collected in a heparin anticoagulation tube. After blood collection, the mouse was intracardially perfused through the left ventricle with 20 mL PBS, followed by isolation of the whole brain. To process the blood sample, 300 μL blood was mixed with 600 μL of ice-cold acetonitrile containing the IS at 200 ng/mL, followed by centrifugation at 10,000 rpm, 4 °C for 10 min. To process the brain sample, 250 μL of ice-cold PBS was added to the isolated brain and homogenized at 0 °C, followed by mixing with 1 mL of ice-cold acetonitrile containing the IS. The brain sample was then centrifuged at 10,000 rpm, 4 °C for 10 min. The supernatants were collected from the blood sample (600 μL) and the brain sample (1 mL), respectively, and dried under vacuum. The blood and brain samples were reconstituted in 100 μL of 20% acetonitrile. The samples were then centrifuged at 13,000 rpm, 4 °C for 5 min to remove the lipid content. The supernatants were collected from the blood and brain samples and analyzed by LC-MS/MS.

[2] = tested on: physical dependence in mice; design: method as in PMID 38005269; details: chronic administration, naloxone-precipitated withdrawal; cited from earlier work
human KOR = biological target: T3, human KOR (Homo sapiens, UniProt P41145); experiment: Opioid receptor radioligand binding assay ([3H]diprenorphine), KOR
T3 construct: expressed in transfected cells
Method: as §1, §2

T3 sequence (P41145 whole entry): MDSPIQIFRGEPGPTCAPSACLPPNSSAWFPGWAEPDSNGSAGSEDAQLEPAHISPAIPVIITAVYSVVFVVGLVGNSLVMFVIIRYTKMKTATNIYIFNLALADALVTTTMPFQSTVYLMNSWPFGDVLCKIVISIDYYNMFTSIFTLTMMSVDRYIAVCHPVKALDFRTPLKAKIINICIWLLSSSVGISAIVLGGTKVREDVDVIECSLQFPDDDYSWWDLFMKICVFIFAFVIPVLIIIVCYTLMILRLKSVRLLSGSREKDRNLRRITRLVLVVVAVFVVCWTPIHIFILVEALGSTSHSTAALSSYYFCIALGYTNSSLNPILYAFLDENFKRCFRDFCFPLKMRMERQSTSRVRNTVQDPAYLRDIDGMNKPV
T2 sequence (P32300 whole entry): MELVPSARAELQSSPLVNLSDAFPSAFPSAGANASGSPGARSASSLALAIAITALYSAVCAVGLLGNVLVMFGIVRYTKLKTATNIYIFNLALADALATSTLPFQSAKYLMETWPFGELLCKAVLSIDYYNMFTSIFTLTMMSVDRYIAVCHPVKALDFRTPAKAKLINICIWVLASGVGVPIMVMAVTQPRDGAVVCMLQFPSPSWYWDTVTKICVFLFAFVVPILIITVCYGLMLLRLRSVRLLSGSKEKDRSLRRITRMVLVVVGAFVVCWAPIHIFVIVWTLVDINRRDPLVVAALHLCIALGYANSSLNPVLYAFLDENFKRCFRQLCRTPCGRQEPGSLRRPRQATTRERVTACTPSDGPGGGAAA
T1 sequence (P33535 whole entry): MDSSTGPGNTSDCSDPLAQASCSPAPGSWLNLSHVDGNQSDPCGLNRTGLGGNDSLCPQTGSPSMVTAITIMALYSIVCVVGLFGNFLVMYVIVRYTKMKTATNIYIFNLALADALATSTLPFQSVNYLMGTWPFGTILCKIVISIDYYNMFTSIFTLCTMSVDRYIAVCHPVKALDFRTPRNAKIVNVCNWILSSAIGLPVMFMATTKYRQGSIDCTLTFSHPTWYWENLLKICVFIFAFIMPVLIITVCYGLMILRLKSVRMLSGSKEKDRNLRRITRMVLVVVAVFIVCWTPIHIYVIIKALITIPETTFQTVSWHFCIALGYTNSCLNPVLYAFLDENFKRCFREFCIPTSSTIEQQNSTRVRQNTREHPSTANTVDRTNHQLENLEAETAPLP

C[C@@H](O)[C@@H]1NC(=O)[C@H](CNC(=O)c2ccccc2N)NC(=O)[C@H](NC(=O)[C@@H](N)Cc2ccc(O)cc2)CCCCNC(=O)CNC1=O [CycloAnt] (H-Y[dK][Dap](2Abz)TG; lactam 2-C)
Ki (rat MOR): 2.25 ± 0.44 nM | Ki (mouse DOR): 7.85 ± 0.77 nM | Tmax ([1]; brain, read-out: time of maximum concentration in brain (converted)): 15 min | Cmax ([1]; assuming density of brain tissue 1 g/mL, read-out: maximum concentration in brain (Cmax,br)): 70 nM | Cmax ([1]; perfused brain, read-out: maximum concentration in brain (Cmax,br)): 46 ng/g | AUC ([1]; plasma, 0-60 min, read-out: AUCbld (plasma) (converted)): 173 ng·h/mL | Cmax ([1]; plasma, read-out: maximum concentration in mouse plasma (Cmax,pl)): 411 ng/mL | Tmax ([1]; whole blood, read-out: time of maximum concentration in blood (converted)): 15 min | physical dependence [2]: significantly reduced physical dependence | inhibition at 1 µM (human KOR; CycloAnt at 1 μM): 6% | inhibition at 10 µM (human KOR; CycloAnt at 10 μM): 26%
